Results taken from the METLIN SMRT retention time set (Domingo-Almenara et al. 2019).

Test: gradient 5% acetonitrile 3 min, to 50% in 2 min, to 85% in 15 min, held 3 min, 100 µL/min
Conditions: column: Zorbax Extend-C18 2.1 x 50 mm; eluents: water / acetonitrile, 0.1% formic acid
Outline: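 Retention times come from adduct peaks that were picked computationally and then checked by hand. The standards, pure and pooled in mixtures of ~100 molecules, were run on a Zorbax Extend-C18 column (2.1 × 50 mm, 1.8 μm) at 100 μL/min with water and acetonitrile, each with 0.1% formic acid. Detection was by quadrupole time-of-flight mass spectrometry in positive and negative ionization mode, with a dead volume of 40 μL and a dwell volume of 900 μL.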

| SMILES | RP-LC retention time [s] |
| --- | --- |
| COc1ccc(N2CCN(C(=O)c3cn4nc(Cl)ccc4n3)CC2)cc1 | 714 |
| COc1ccccc1-c1noc(Cn2c(=O)n(C(C)C)c(=O)c3ccccc32)n1 | 994 |
| CC(C)c1ccc(CNC(=O)[C@@]23CCCC[C@H]2N(C)C(=O)CC3)cc1 | 786 |
| O=C(Nc1cccc(Cl)c1)c1cnn2c1CCCC2 | 814 |
| N#CC1=CN(c2ccc(F)c(F)c2)c2ccc(F)cc2S1(=O)=O | 934 |
| Cc1noc(C)c1S(=O)(=O)N1CCC(n2c(C)cnc2-c2cccnc2)C1 (stereo not given) | 616 |
| O=C(NCc1ccco1)c1ccc(Cn2nc(N3CCN(c4ccc(F)cc4)CC3)ccc2=O)o1 | 820 |
| COC[C@@H]1CN(Cc2c(C)noc2C)C[C@H]1c1ccccn1 | 580 |
| Cc1cc(C(=O)N2CCCCC2c2nncn2CC2CC2)nn1C (stereo not given) | 629 |
| OCCN(Cc1ccccc1)CC(O)COc1cccc2ccccc12 (stereo not given) | 601 |
| CCOc1ccc(-c2ccc(=O)n(CCc3nc(-c4ccc5c(c4)OCO5)no3)n2)cc1 | 986 |
| Cc1ccc(F)c(NC(=O)c2nc3nc(C)cc(C(F)F)n3n2)c1 | 846 |
| C=CCNC(=O)c1cn(-c2cc(-c3nc(C(C)C)no3)ccn2)cn1 | 820 |
| CCC(=O)Nc1c(C)noc1/C=C/c1ccc(S(=O)(=O)N2CCN(c3ccccn3)CC2)s1 | 677 |
| CN(C)C(=O)c1ccc2c(c1)N(CC(=O)N1CCN(c3ccccn3)CC1)C(=O)CS2 | 573 |
| CCCNC(=O)c1cc(-c2ccccc2)cn1CC | 977 |
| CC(C)CC(NC(=O)OCc1ccccc1)C(=O)NC(Cc1ccccc1)C(=O)CCl (stereo not given) | 1010 |
| CCCC(=O)N1CCc2c([nH]c3ccccc23)C1c1ccc(OCC)cc1 (stereo not given) | 1140 |
| COc1cccc(NC(=O)c2[nH]c3cc(C)sc3c2CN2CCOCC2)c1 | 685 |
| COc1cccc(N2C(=O)CC(c3ccc(OC)c(OC)c3)CC2=O)c1 | 789 |
| COc1ccc(-c2cc(N3CCN(C(=O)Nc4ccc(OC)cc4OC)CC3)ncn2)cc1 | 663 |
| Cn1cc(C(=O)NCc2ccc3c(c2)OCO3)c(S(=O)(=O)N2CCCCC2)n1 | 854 |
| O=c1ccn(-c2ccc(Cl)cc2)nc1-c1nc(-c2ccccc2Br)no1 | 1000 |

| SMILES | RP-LC retention time [s] |
| --- | --- |
| Cc1ccn2c(NC(=O)c3ccc(Cl)c([N+](=O)[O-])c3)c(-c3ccccc3)nc2c1 | 700 |
| COc1ccccc1N1CCN(c2ncc(C(=O)O)c(C)n2)CC1 | 750 |
| O=C(NCc1ccccc1)Nc1ccc(-c2nc(-c3ccccc3)co2)cc1 | 1070 |
| CSc1nnc(Cn2c(=O)sc3ccccc32)n1-c1cccc(C(F)(F)F)c1 | 824 |
| Cc1cc(NC(=O)CN2C(=O)C(C(=O)N3CCCC3)Sc3ccccc32)ccc1Br (stereo not given) | 971 |
| O=C(c1ccc(S(=O)(=O)c2ccccc2)nc1)N1CCN(C2CCCCC2)CC1 | 566 |
| CCOC(=O)c1ccc(NC(=O)CSc2cc(N3CCCC3)ncn2)cc1 | 828 |
| O=C(NC1CCc2nnc(C3CC3)n2CC1)c1cccs1 (stereo not given) | 589 |
| CC(C)(C)NS(=O)(=O)c1cc(-c2nnc(-c3ccccc3)o2)ccc1F | 985 |
| Cc1nc(Nc2ccc(F)cn2)sc1C(=O)NCCCc1ccccc1 | 883 |
| Cc1cccc(S(=O)(=O)N2CCc3c(c(-c4nnc(-c5ccccc5F)o4)nn3C)C2)c1 | 999 |
| CCOC(=O)c1noc2nc(C)nc(NCC3CCN(Cc4cccc(C)c4)CC3)c12 | 609 |
| CCC(C)C(NC(=O)CCc1ccc(OC)cc1)C(=O)Nc1nc2ccccc2[nH]1 (stereo not given) | 734 |
| CCC1CCCCN1C(=O)CSc1n[nH]c(-c2ccccc2)n1 (stereo not given) | 819 |
| COc1ccc(NS(=O)(=O)c2ccc3c(c2)-c2oncc2CO3)c(OC)c1 | 852 |
| CCOC(=O)c1cccc(NC(=O)N2CCc3cn(C)c4cccc(c34)C2)c1 | 1210 |
| Cc1noc(C)c1CN1CCN(C(=O)NCc2ccc(F)cc2)CC1 | 598 |
| COc1ccc(-c2ccnn2-c2ccc(SCc3cccc(F)c3)nn2)cc1 | 1300 |
| O=C(NCCc1csc2nc(-c3cccs3)nn12)c1ccc(Br)o1 | 769 |
| CCCS(=O)(=O)N1CCC2(CC1)CN(Cc1ccc(OC)cc1)C2=O | 787 |
| Cc1[nH]c(C(=O)N2CCC(CC(=O)NCCN3CCCCC3)CC2)c(C)c1C | 604 |
| O=C(Nc1ccc(Cl)cc1)C1CC(=O)N(c2n[nH]c3cccc(F)c23)C1 (stereo not given) | 787 |
| Cc1cccc(C(=O)Nc2ccc(N3CCN(C4CCCCC4)C3=O)nc2)c1 | 950 |

| SMILES | RP-LC retention time [s] |
| --- | --- |
| O=C(COc1ccc(F)cc1)N1CCN(c2ccc(=O)n(-c3ccc(Cl)cc3)n2)CC1 | 874 |
| CCn1cc(CN2CC(Oc3ccc(-c4noc(-c5ccncc5)n4)cc3)C2)cn1 | 633 |
| CCNc1cc(C)nc(N2CCN(C(=O)CC(C)C)CC2)n1 | 613 |
| COc1ccc(NC(=O)N2CCC3(C2)C(=O)Nc2ccc(OC)cc23)c(OC)c1 (stereo not given) | 715 |
| COc1cc(NS(=O)(=O)c2ccc(-c3c(C)noc3C)cc2)cc(OC)c1 | 889 |
| COc1cccc(CC(=O)N2CCc3cc(-c4csc(C)n4)ccc32)c1 | 967 |
| O=c1c2nc(-c3ccc(F)cc3)cn2ccn1-c1ccc(F)c(Cl)c1 | 888 |
| COc1c(NC(C)=O)c2ccccc2c2ccccc12 | 830 |
| CCOc1ccc(NC(=O)N2CCCC(Cn3c(C4CC4)nc4cccnc43)C2)cc1 (stereo not given) | 689 |
| Cc1c(Cl)cccc1NC(=O)C(C)C1CCN(C(=O)Nc2ccccc2)CC1 (stereo not given) | 860 |
| Clc1ccccc1N1CCN(c2ncnc3[nH]ncc23)CC1 | 660 |
| CC(C)S(=O)(=O)N[C@H]1CCOC[C@@H]1c1ccc(-c2ccc(C#N)s2)cc1 | 958 |
| CCN1CCCN(C(=O)C2(c3ccc(OC)cc3)CC2)CC12CCOCC2 | 620 |
| [O-]/[N+](=C\c1ccccc1)CC1(O)CCCCC1 | 798 |
| Cc1cccc(-c2nnc(SCc3cc(=O)n4ccsc4n3)o2)c1 | 821 |
| O=S(=O)(c1ccccc1)N1CCCC(c2nnnn2-c2ccccc2)C1 (stereo not given) | 928 |
| Cc1nc2cc(NC(=O)c3csc(Nc4ncccn4)n3)ccc2s1 | 706 |
| CCc1ccccc1NC(=O)C1CCN(S(=O)(=O)c2cc(C(=O)N3CCCC3)cs2)CC1 | 799 |
| O=C(C1CCCO1)N1N=C(c2ccc(Br)cc2)CC1c1ccco1 (stereo not given) | 892 |
| Cc1cc(C(=O)Nc2ccc(Cl)cc2)nc2cc(-c3ccco3)nn12 | 1170 |
| CC(C)CC(=O)Nc1ccc(-n2cnc(C(=O)N3CCN(c4ccccc4)CC3)c2)nc1 | 819 |
| CN(C)C(CNC(=O)c1cc(-c2cccs2)on1)c1ccccc1 (stereo not given) | 664 |
| CCCc1nc2cccnc2n1C1CCN(C(=O)Nc2ccc3c(c2)OCCO3)C1 (stereo not given) | 600 |

| SMILES | RP-LC retention time [s] |
| --- | --- |
| COc1ccc(NC(=O)N(C)CC2CCOCC2)c(C)c1 | 670 |
| COc1ccc(NC(=O)Nc2cccn3c(C4CCC4)nnc23)cc1F | 815 |
| COc1cccc(NC(=O)N2CCN(c3cc(C)nc(N4CCCC4)n3)CC2)c1 | 657 |
| CCCCOc1ccc(C(=O)NCc2ccco2)cc1 | 865 |
| CCc1nc(-c2csc(S(=O)(=O)N3CCCC(C(=O)NC4CCCC4)C3)c2)no1 (stereo not given) | 937 |
| O=C(N[C@H]1C[C@@H]2C[C@H]1N(C(=O)c1ccccc1Cl)C2)c1cccs1 | 643 |
| Cc1nc(CC(=O)Nc2c(F)cccc2F)sc1C(=O)NC1CC1 | 660 |
| COc1ccc(-c2nc(C)cc(C)c2CNC(=O)c2ccc3c(c2)OCO3)cc1 | 632 |
| CCc1ccc2c(c1)-c1ccccc1S(=O)(=O)N2CC(=O)NCCN1CCOCC1 | 671 |
| Cc1cc(C)cc(C(=O)N2CCC(C(=O)NCc3csc(-c4cccs4)n3)CC2)c1 | 860 |
| O=C1CCCc2cc(S(=O)(=O)N3CCCC(C(=O)N4CCc5ccccc5C4)C3)ccc2N1 (stereo not given) | 792 |
| CCOc1ccccc1-n1nnc(-c2nn3c(Cc4ccccc4)nnc3s2)c1C | 857 |
| Cc1ccc(-c2coc(-c3ccc(NS(=O)(=O)c4ccc(Cl)s4)cc3)n2)c(C)c1 | 1350 |
| CC(C)NC(=O)N1CCCC(c2cccc(C(=O)NCc3ccc(F)cc3F)c2)C1 (stereo not given) | 862 |
| O=C1COc2ccccc2N1Cc1nc(-c2ccc(Cl)c(F)c2)no1 | 1120 |
| CCc1cc(C(=O)N2CCCCCC2)nc2cc(-c3ccsc3)nn12 | 1070 |
| CCc1cccc(NC(=O)c2cc(C)n3nccc3n2)c1 | 1030 |
| CCOc1ccccc1C(=O)N1CCC2(CC1)NC(=O)c1ccc(Cl)cc1N2 | 790 |
| CCOCCCNC(=O)N1CCC(c2noc(-c3ccncc3)n2)C1 (stereo not given) | 643 |
| CCN1C(=O)C2(CCN(S(=O)(=O)Cc3ccc(Cl)cc3)CC2)c2ccccc21 | 1050 |
| CC1CCCN(S(=O)(=O)c2ccc(-c3nnc(C4CC4)o3)o2)C1 (stereo not given) | 940 |
